Results as given in patent EP4609864A1, “PHARMACEUTICAL COMPOSITION CONTAINING ISOQUINOLINONE COMPOUND, AND PREPARATION METHOD THEREFOR” (Jiangsu Hengrui Pharmaceuticals Co., Ltd., priority 2022, dated 2024).

How the values were obtained:
[1] = phase II; patients with chronic obstructive pulmonary disease; cited from earlier work
immune cells in BALF = assay: Mouse model of LPS-induced acute pulmonary inflammation: immune cell counts in BALF; assay type: in vivo, BALB/c mouse; settings: 1.0 mg/kg intratracheal nebulized, 1 h before LPS; BALF 6 h after modeling; vs. model group
Experimental: (§1) The study utilized a BALB/c mouse model of LPS-induced acute pulmonary inflammation to evaluate the inhibitory effect of the compound on pulmonary inflammation based on immune cell counts and TNFα cytokine levels in bronchoalveolar lavage fluid (BALF). The mice were divided into 6 groups, with 8 mice per group, including: a normal control group, a model control group, an RPL554 group (1.0 mg/kg), and low, medium, and high dose groups of compound A (0.3 mg/kg, 1.0 mg/kg, and 3.0 mg/kg). One hour after intratracheal administration of nebulized drugs, the mice were stimulated by nebulized LPS for modeling. Six hours after modeling, BALF was collected from the animals, and the total cells, the neutrophils, and the eosinophils in BALF were counted, along with the measurement of the pro-inflammatory cytokine TNFα level in BALF.

TNFα = assay: Mouse model of LPS-induced acute pulmonary inflammation: TNFα level in BALF; assay type: in vivo, BALB/c mouse; settings: 1.0 mg/kg intratracheal nebulized, 1 h before LPS; BALF 6 h after modeling; vs. model group
Experimental: as §1

In the case of `COc1cc2c(cc1OC)-c1c/c(=N\c3c(C)cc(C)cc3C)n(CCNC(N)=O)c(=O)n1CC2` [RPL554, 9,10-dimethoxy-2-(2,4,6-trimethylphenylimino)-3-(N-carbamoyl-2-aminoethyl)-3,4,6,7-tetrahydro-2H-pyrimido[6,1-α]isoquinolin-4-one], the bronchodilation and symptoms [1] is given as “significantly improve bronchodilation and symptoms”, the “tolerability, adverse events” value [1] is given as “well tolerated” and the “number of eosinophils in BALF” value (immune cells in BALF) is given as “significantly lower”. The “number of neutrophils in BALF” value (immune cells in BALF) was “significantly lower”, the “number of total cells in BALF” value (immune cells in BALF) was “significantly lower” and the “TNFα level in BALF” value (TNFα) was “downward trend”.
